Data taken from patent US12338203B2 (TAISHO PHARMACEUTICAL CO., LTD., priority 2019, dated 2025).

Target: T1, human LPAR1 (Homo sapiens, UniProt Q92633)
T1 construct: expressed in transfected cells
Experiment: Test Example 1: antagonism against response of LPA-induced increase in intracellular Ca2+ concentration in RH7777 cells stably expressing human LPAR1
Format: cell-based
Settings: RH7777 cells stably expressing human LPAR1; Fluo-4 fluorescence, FDSS6000; read-out: IC50 value (concentration producing 50% antagonism against response of LPA-induced increase in intracellular Ca2+ concentration) (converted)
Outline: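 RH7777 cells stably transfected with human LPAR1 were preincubated with test compound 30 min at 37 °C in HBSS/20 mM HEPES/probenecid/0.05% BSA buffer, pH 7.4, then LPA-stimulated.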

T1 sequence (Q92633 whole entry): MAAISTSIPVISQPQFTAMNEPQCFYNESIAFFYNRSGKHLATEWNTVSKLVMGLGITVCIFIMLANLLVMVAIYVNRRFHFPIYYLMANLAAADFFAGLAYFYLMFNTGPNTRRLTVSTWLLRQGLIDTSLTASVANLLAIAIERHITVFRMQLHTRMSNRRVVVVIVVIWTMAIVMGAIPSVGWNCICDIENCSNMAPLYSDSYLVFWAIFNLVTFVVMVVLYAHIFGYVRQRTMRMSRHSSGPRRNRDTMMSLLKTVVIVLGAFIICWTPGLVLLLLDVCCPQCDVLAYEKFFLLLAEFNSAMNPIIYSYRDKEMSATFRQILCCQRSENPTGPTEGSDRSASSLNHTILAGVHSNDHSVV

Row | IC50 | SMILES
1 | 733 nM | CCOc1cc([C@@H](C)N(Cc2cc3ccccc3[nH]2)C(=O)NC2(C(=O)O)CC(F)(F)C2)cc(OCC)c1C [Example 4-32]
2 | 3040 nM | CCOc1cc(C(C)N(CCO[C@@H](C)c2ccccc2)C(=O)NC2(C(=O)OC(C)(C)C)CC2)c(Cl)c(OCC)c1C(C)=O (stereo partly shown) [Example 6-13]
3 | 1.21 nM | CCOc1cc([C@@H](C)N(CCCC(F)(F)c2ccccc2)C(=O)NC2(C(=O)O)CC2)cc(OCC)c1C1CC1 [Example 4-46]
4 | 3.62 nM | CCOc1cc(C(C)N(CCCCc2ccccc2)C(=O)NC2(C(=O)O)CC(F)(F)C2)ccc1C(C)=O (stereo not shown) [Example 5-8]
5 | 88.5 nM | CCOc1cc(C(C)N(CCCCc2ccccc2)C(=O)NC(Cc2cccnc2)C(=O)O)cc(OCC)c1C (stereo not shown) [Example 1-10]
6 | 1.71 nM | CCNc1cc(C(C)N(CCCCc2ccccc2)C(=O)NC2(C(=O)O)CCC2)cc(OCC)c1C(C)=O (stereo not shown) [Example 5-103]
7 | 2.23 nM | CCOc1cc([C@@H](C)N(CCCCc2ccccc2)C(=O)NC2(C(=O)O)CC2)cc(OCC)c1C(C)=O [Example 1-16, 1-({[(1R)-1-(4-Acetyl-3,5-Diethoxyphenyl)Ethyl](4-Phenylbutyl) Carbamoyl}Amino)Cyclopropane-1-Carboxylic Acid]
8 | 6.4 nM | COc1cc(C(C)N(CCO[C@@H](C)c2ccccc2)C(=O)NC2(C(=O)O)CCOCC2)c(Cl)c(OC)c1C1CC1 (stereo partly shown) [Example 5-180]
9 | 3.17 nM | CCOc1cc(C(C)N(CCOCc2ccccc2)C(=O)NC2(c3nn[nH]n3)CC(F)(F)C2)cc(OCC)c1C1CC1 (stereo not shown) [Example 10-13]
10 | 10.1 nM | CCOc1cc([C@@H](C)N(CCC(F)(F)Cc2ccccc2)C(=O)NC2(C(=O)O)CC(OCC)C2)cc(OCC)c1C(C)=O (stereo partly shown) [Example 4-93]
11 | 2.11 nM | CCOc1cc(C(C)N(CCCCc2ccccc2)C(=O)NC2(C(=O)O)CC(OCC)C2)cc(OCC)c1C(C)=O (stereo not shown) [Example 1-96]
12 | 2.43 nM | COc1cc(C(C)N(CCOCc2ccccc2)C(=O)NC2(C(=O)O)CC(F)(F)C2)c(C)c(OC)c1C(C)=O (stereo not shown) [Example 5-145]
13 | 1.56 nM | CCOc1cc([C@@H](C)N(CCO[C@@H](C)c2ccccc2)C(=O)N[C@]2(C(=O)O)C[C@@H](OCC)C2)c(Cl)c(OCC)c1C(C)O (single isomer, unassigned) [Example 5-62]
14 | 1.21 nM | CCOc1cc([C@@H](C)N(CCO[C@@H](C)c2ccccc2)C(=O)N[C@]2(C(=O)O)C[C@@H](OC)C2)c(C)c(OCC)c1C [Example 5-79]
15 | 2.58 nM | COc1cc(C(C)N(CCO[C@@H](C)c2ccccc2)C(=O)NC2(C(=O)O)CC(F)(F)C2)c(Cl)c(OC)c1C1CC1 (stereo partly shown) [Example 5-149]
16 | 7.62 nM | CCOc1c(C(C)=O)ccc([C@@H](C)N(CCO[C@@H](C)c2ccccc2)C(=O)N[C@]2(C(=O)O)C[C@H](OCC)C2)c1C [Example 4-141]
17 | 2.17 nM | CCOc1cc([C@@H](C)N(CCCCc2ccccc2)C(=O)NC2CCCC2C(=O)O)cc(OCC)c1C(C)=O (stereo partly shown) [Example 1-135]
18 | 5.48 nM | CCOc1cc([C@@H](C)N(CCCOc2ccccc2)C(=O)NC2(C(=O)O)CC(F)(F)C2)cc(OCC)c1C [Example 4-98]
19 | 5.7 nM | CCOc1cc([C@@H](C)N(CCCc2ccccc2)C(=O)NC2(C(=O)O)CC(F)(F)C2)cc(OCC)c1C [Example 4-36]
20 | 3.36 nM | CCOc1cc(C(C)N(CCCCc2ccccc2)C(=O)NC2(C(=O)O)CC(F)(F)C2)c(Cl)c(OCC)c1C (stereo not shown) [Example 5-84]
21 | 55.3 nM | CCOc1cncc(C(C)N(CCCCc2ccccc2)C(=O)NC2(C(=O)O)CC(F)(F)C2)c1 (stereo not shown) [Example 5-89]
22 | 4.93 nM | COc1cc(C(C)N(CCOCc2ccccc2)C(=O)NC2(C(=O)O)CCOCC2)c(Cl)c(OC)c1C1CC1 (stereo not shown) [Example 5-175]
23 | 22.1 nM | CCOc1cc([C@@H](C)N(CCC(F)(F)Cc2ccccc2)C(=O)NC2(C(=O)O)CCOCC2)c(Cl)c(OCC)c1C(C)=O [Example 5-43]
24 | 9.98 nM | CCOc1cc(C(C)N(CCCCc2ccccc2)C(=O)NC2CC(C(=O)O)C2)cc(OCC)c1C(C)=O (stereo not shown) [Example 1-129]
25 | 7.89 nM | CCOc1cc([C@@H](C)N(CCC(F)(F)Cc2ccccc2)C(=O)NC2(C(=O)O)CCC2)cc(OCC)c1C(C)=O [Example 4-81]
